Test results from patent publication US20220390435A1, “COMPOSITIONS FOR PATIENT SPECIFIC IMMUNOTHERAPY” (VITROSCAN B.V., priority 2019, published 2022).

Legend:
Type in all cases: cell-based, human
ovarian cancer tumoroids = experiment: ex vivo 3D patient-derived tumour culture with 3D imaging, ovarian cancer samples; conditions: for area size of small objects (smaller than 160 μm^2, immune cells): same ovarian tumour sample as FIG. 4, FIG. 5
[1] = test system: patient derived tumour cell aggregates; experiment: Selection Factor (tumoroids' area decrease) across patient samples; conditions: for immune reaction reducing the number of tumour cells (Selection Factor across samples): FIGS. 8 and 9, alone or in combination, immune system of a naïve patient sample only
[2] = test system: Mesothelioma tumour sample; experiment: ex vivo 3D patient-derived tumour culture with 3D imaging, mesothelioma sample; conditions: FIG. 3
lung tumour sample = experiment: ex vivo 3D patient-derived tumour culture with 3D imaging, lung tumour sample; conditions: FIG. 6
IFN-γ = IFN-γ production in treated patient-derived cultures; conditions: FIG. 7; IFN-γ is secreted by activated T-cells

## Nc1ncnc2c1ncn2[C@@H]1O[C@@H]2COP(=O)([S-])O[C@@H]3[C@H](O)[C@@H](COP([O-])(=S)O[C@H]2[C@H]1O)O[C@H]3n1cnc2c(N)ncnc21.[Na+].[Na+] (stereo partly shown) [ADU-S100]
Ovarian cancer tumoroids
  area size of small objects (smaller than 160 μm^2, immune cells): area size increase of small objects

## O=C(c1cc(Cc2n[nH]c(=O)c3ccccc23)ccc1F)N1CCN(C(=O)C2CC2)CC1 [olaparib]
[1]
  immune reaction reducing the number of tumour cells (Selection Factor across samples): able to start an immune reaction that effectively reduced the number of tumour cells

## ipilimumab
Ovarian cancer tumoroids; ovarian cancer samples of FIG. 1
  activating native immune cells to kill ovarian cancer tumoroids (total area of objects larger than 422 μm^2 / smaller than 160 μm^2): showed effectiveness in activating immune cells
Ovarian cancer tumoroids; ovarian cancer samples of FIG. 2
  activating native immune cells to kill tumoroids: does not show effectiveness
[2]
  immune-mediated tumoroid killing effect: showing immune-mediated tumoroid killing effect
Lung tumour sample
  killing effect in a lung cancer tumour sample: killing effect in a lung cancer tumour sample
IFN-γ
  IFN-γ production: increased
[1]
  immune reaction reducing the number of tumour cells (Selection Factor across samples): able to start an immune reaction that effectively reduced the number of tumour cells
[1]; subset of patients that benefit from treatment
  in-vitro Selection Factor: below −30%

## nivolumab
Lung tumour sample
  killing effect in a lung cancer tumour sample: killing effect in a lung cancer tumour sample

## pembrolizumab
Ovarian cancer tumoroids; ovarian tumour sample, FIG. 4
  killing effect, i.e. area size reduction of tumoroid clusters: killing effect, i.e. area size reduction of tumoroid clusters
Ovarian cancer tumoroids
  area size of small objects (smaller than 160 μm^2, immune cells): area size increase of small objects
Lung tumour sample
  killing effect in a lung cancer tumour sample: killing effect in a lung cancer tumour sample
